Measurements from patent publication US11542313B2, “Incretin analogs and uses thereof” (Eli Lilly and Company, priority 2017, dated 2023).
pEC50, pKi: −log10 of the molar value. *1 amine or outer side, *2 acyl side, *3 side chain or, on linkers, in order; H or OH if unused. Where a SMILES comes first, the peptide text is derived from it. Side-chain parts run from the residue outwards. [ ]: non-standard residue; d: D form. The star is where a group is joined. C20 diacid = O=C(O)CCCCCCCCCCCCCCCCCCC(=O)*; γGlu = O=C(O)[C@H](CCC(=O)[*:2])N[*:1]; αMeL = CC(C)C[C@](C)(N)C(=O)O; αMeK = C[C@](N)(CCCCN)C(=O)O; AEEA = NCCOCCOCC(=O)O; Aib = CC(C)(N)C(=O)O

Experiments:
[1] = rat, in vivo, sc, 100 nmol/kg
Experimental: (§3) The pharmacokinetics of the exemplary analogs are evaluated following a single subcutaneous administration of 100 nM/kg to male Sprague Dawley rats. Blood samples are collected over 120 hours, and resulting individual plasma concentrations are used to calculate pharmacokinetic parameters. Peptide plasma (K3 EDTA) concentrations are determined using a qualified LC/MS method that measured the intact mass of the analog. Each peptide and an analog as an internal standard are extracted from 100% specie specified plasma using methanol with 0.1% formic acid. A Thermo Q-Exactive, High Resolution Instrument, and a Thermo Easy Spray PepMap are combined for LC/MS detection.

[2] = biological target: T1, human glucagon receptor (GcgR) (Homo sapiens, UniProt P47871); assay: Radioligand competition binding (SPA), human GcgR membranes; conditions: HEK293 membranes, SPA, bacitracin present; mean; read-out: Ki, GcgR
T1 construct: expressed in transfected cells; host or cells: HEK293 (membranes)
Text: (§1) Radioligand competition binding assays are run to determine the equilibrium dissociation constant for exemplary compounds and comparator molecules.
(§2) Competition curves are plotted as the percent specific inhibition (y-axis) versus log concentration of compound (x-axis) and analyzed using a four parameter nonlinear regression fit with variable slope (ABase or Genedata).

hGLP-1R = hGLP-1R (Homo sapiens, UniProt P43220); assay: cAMP assay in HEK293 cells expressing hGLP-1R, 0.1% casein; assay type: cell-based; conditions: in the presence of 0.1% casein; read-out: cAMP EC50, GLP-1R
[3] = biological target: T2, human GIP receptor (GIPR) (Homo sapiens, UniProt P48546); assay: Radioligand competition binding (SPA), human GIPR membranes; conditions: HEK293 membranes, SPA, bacitracin present; mean; read-out: Ki, GIPR
T2 construct: expressed in transfected cells; host or cells: HEK293 (membranes)
T2 sequence (P48546 22-466): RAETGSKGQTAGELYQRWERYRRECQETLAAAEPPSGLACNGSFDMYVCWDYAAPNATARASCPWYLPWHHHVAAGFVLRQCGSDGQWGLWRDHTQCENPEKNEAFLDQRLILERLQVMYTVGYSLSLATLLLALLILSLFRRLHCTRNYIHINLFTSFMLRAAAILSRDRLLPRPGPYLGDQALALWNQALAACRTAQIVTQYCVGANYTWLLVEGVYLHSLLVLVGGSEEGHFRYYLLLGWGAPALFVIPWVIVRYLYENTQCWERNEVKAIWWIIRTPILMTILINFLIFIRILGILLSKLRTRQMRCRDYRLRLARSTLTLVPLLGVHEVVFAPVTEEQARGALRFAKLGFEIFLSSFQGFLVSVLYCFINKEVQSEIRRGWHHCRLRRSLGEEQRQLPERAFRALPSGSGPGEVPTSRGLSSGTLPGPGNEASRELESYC
Text: as §1, §2

GLP-1 receptor (GLP-1R) = biological target: T3, GLP-1 receptor (GLP-1R) (Homo sapiens, UniProt P43220); assay: Radioligand competition binding (SPA), human GLP-1R membranes; conditions: HEK293 membranes, SPA, bacitracin present; mean; read-out: Ki, GLP-1R
T3 construct: expressed in transfected cells; host or cells: HEK293 (membranes)
Text: as §1, §2

in vivo = conditions: male, Sprague-Dawley, rat, sc, 100 nmol/kg
Experimental: as §3

hGIPR = biological target: T4, hGIPR (Homo sapiens, UniProt P48546); assay: cAMP assay in HEK293 cells expressing hGIPR, 0.1% casein; assay type: cell-based; conditions: in the presence of 0.1% casein; read-out: cAMP EC50, GIPR
T4 construct: expressed in transfected cells; host or cells: HEK293
T4 sequence (P48546 22-466): T2 sequence (P48546 22-466)

hGcgR = biological target: T5, hGcgR (Homo sapiens, UniProt P47871); assay: cAMP assay in HEK293 cells expressing hGcgR, 0.1% casein; assay type: cell-based; conditions: in the presence of 0.1% casein; read-out: cAMP EC50, GcGR
T5 construct: expressed in transfected cells; host or cells: HEK293
T5 sequence (P47871 26-477): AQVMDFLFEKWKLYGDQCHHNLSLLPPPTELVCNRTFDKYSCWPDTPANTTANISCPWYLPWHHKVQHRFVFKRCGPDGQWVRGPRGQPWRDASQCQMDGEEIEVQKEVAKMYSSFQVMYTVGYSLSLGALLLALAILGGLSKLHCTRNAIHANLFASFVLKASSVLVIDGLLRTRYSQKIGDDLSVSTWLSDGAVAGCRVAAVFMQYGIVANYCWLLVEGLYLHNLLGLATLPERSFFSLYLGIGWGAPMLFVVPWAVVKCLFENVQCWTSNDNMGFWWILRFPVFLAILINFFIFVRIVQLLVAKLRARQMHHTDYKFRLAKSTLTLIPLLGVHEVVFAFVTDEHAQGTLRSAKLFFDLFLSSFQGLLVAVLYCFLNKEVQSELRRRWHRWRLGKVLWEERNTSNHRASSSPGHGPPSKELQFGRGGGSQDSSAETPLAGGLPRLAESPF

T1 sequence (P47871 26-477): as above
hGLP-1R, sequence (P43220 24-463): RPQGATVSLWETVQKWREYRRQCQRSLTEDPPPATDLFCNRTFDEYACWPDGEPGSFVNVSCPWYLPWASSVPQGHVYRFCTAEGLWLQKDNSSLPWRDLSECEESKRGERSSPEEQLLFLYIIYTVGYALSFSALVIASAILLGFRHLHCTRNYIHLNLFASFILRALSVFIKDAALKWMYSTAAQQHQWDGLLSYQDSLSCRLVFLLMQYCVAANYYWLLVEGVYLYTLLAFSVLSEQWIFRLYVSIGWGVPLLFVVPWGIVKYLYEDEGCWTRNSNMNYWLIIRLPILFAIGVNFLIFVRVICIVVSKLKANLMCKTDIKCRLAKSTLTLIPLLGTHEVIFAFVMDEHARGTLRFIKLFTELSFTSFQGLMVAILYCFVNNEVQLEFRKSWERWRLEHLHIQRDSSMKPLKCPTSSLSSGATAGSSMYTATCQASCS
T3 sequence (P43220 24-463): as above

CC[C@H](C)[C@H](NC(=O)[C@H](Cc1ccccc1)NC(=O)[C@H](C)NC(=O)[C@](C)(CCCCN)NC(=O)[C@H](CCC(N)=O)NC(=O)[C@H](C)NC(=O)[C@H](CCCCNC(=O)COCCOCCNC(=O)COCCOCCNC(=O)CC[C@H](NC(=O)CCCCCCCCCCCCCCCCCCC(=O)O)C(=O)O)NC(=O)[C@H](CCCCN)NC(=O)[C@H](CC(=O)O)NC(=O)[C@H](CC(C)C)NC(=O)[C@](C)(CC(C)C)NC(=O)[C@@H](NC(=O)[C@H](CO)NC(=O)[C@H](Cc1ccc(O)cc1)NC(=O)[C@H](CC(=O)O)NC(=O)[C@H](CO)NC(=O)[C@@H](NC(=O)[C@H](Cc1ccccc1)NC(=O)[C@@H](NC(=O)CNC(=O)[C@H](CCC(N)=O)NC(=O)C(C)(C)NC(=O)[C@@H](N)Cc1ccc(O)cc1)[C@@H](C)O)[C@@H](C)O)[C@@H](C)CC)C(=O)N[C@@H](CCC(=O)O)C(=O)N[C@@H](Cc1ccc(O)cc1)C(=O)N[C@@H](CC(C)C)C(=O)N[C@@H](CC(C)C)C(=O)N[C@@H](C)C(=O)NC(C)(C)C(=O)NCC(=O)N1CCC[C@H]1C(=O)N[C@@H](CO)C(=O)N[C@@H](CO)C(=O)NCC(=O)N[C@@H](C)C(=O)N1CCC[C@H]1C(=O)N1CCC[C@H]1C(=O)N1CCC[C@H]1C(=O)N[C@@H](CO)C(N)=O [Example 1] (H-Y[Aib]QGTFTSDYSI[αMeL]LDKK([AEEA-AEEA-γGlu-C20 diacid])AQ[αMeK]AFIEYLLA[Aib]GPSSGAPPPS-NH2; N-terminus assumed)
AUCINF_D_obs [1]: 95.7 hr*kg*nmol/L/nmol
pKi [2]: 8.08
pEC50 (hGLP-1R): 9.82
pKi [3]: 10.33
pKi (GLP-1 receptor (GLP-1R)): 8.58
CL/F (in vivo): 0.173 mL/min/kg
Tmax (in vivo): 8 h
half-life (in vivo): 11.7 h
pEC50 (hGIPR): 10.28
pEC50 (hGcgR): 9.94

CC[C@H](C)[C@H](NC(=O)[C@H](Cc1ccccc1)NC(=O)[C@H](C)NC(=O)C(C)(C)NC(=O)[C@H](CCC(N)=O)NC(=O)[C@H](C)NC(=O)[C@H](CCCCNC(=O)COCCOCCNC(=O)CC[C@H](NC(=O)CCCCCCCCCCCCCCCCCCC(=O)O)C(=O)O)NC(=O)[C@H](CCCCN)NC(=O)[C@H](CC(=O)O)NC(=O)[C@H](CC(C)C)NC(=O)[C@H](CC(C)C)NC(=O)[C@@H](NC(=O)[C@H](CO)NC(=O)[C@H](Cc1ccc(O)cc1)NC(=O)[C@H](CC(=O)O)NC(=O)[C@H](CO)NC(=O)[C@@H](NC(=O)[C@H](Cc1ccccc1)NC(=O)[C@@H](NC(=O)CNC(=O)[C@H](CCC(N)=O)NC(=O)C(C)(C)NC(=O)[C@@H](N)Cc1ccc(O)cc1)[C@@H](C)O)[C@@H](C)O)[C@@H](C)CC)C(=O)N[C@@H](CCC(=O)O)C(=O)N[C@@H](Cc1ccc(O)cc1)C(=O)N[C@@H](CC(C)C)C(=O)N[C@@H](CC(C)C)C(=O)N[C@@H](C)C(=O)NC(C)(C)C(=O)NCC(=O)N1CCC[C@H]1C(=O)N[C@@H](CO)C(=O)N[C@@H](CO)C(=O)NCC(=O)N[C@@H](C)C(=O)N1CCC[C@H]1C(=O)N1CCC[C@H]1C(=O)N1CCC[C@H]1C(=O)N[C@@H](CO)C(N)=O [Example 4] (H-Y[Aib]QGTFTSDYSILLDKK([AEEA-γGlu-C20 diacid])AQ[Aib]AFIEYLLA[Aib]GPSSGAPPPS-NH2)
AUCINF_D_obs [1]: 140 hr*kg*nmol/L/nmol
pKi [2]: 8.59
pEC50 (hGLP-1R): 9.74
pKi [3]: 10.43
pKi (GLP-1 receptor (GLP-1R)): 8.45
CL/F (in vivo): 0.12 mL/min/kg
Tmax (in vivo): 16 h
half-life (in vivo): 19.9 h
pEC50 (hGIPR): 10.19
pEC50 (hGcgR): 10.17

CC[C@H](C)[C@H](NC(=O)[C@H](Cc1ccccc1)NC(=O)[C@H](C)NC(=O)C(C)(C)NC(=O)[C@H](CCC(N)=O)NC(=O)[C@H](C)NC(=O)[C@H](CCCCNC(=O)COCCOCCNC(=O)CC[C@H](NC(=O)CCCCCCCCCCCCCCCCCCC(=O)O)C(=O)O)NC(=O)[C@H](CCCCN)NC(=O)[C@H](CC(=O)O)NC(=O)[C@H](CC(C)C)NC(=O)[C@](C)(CC(C)C)NC(=O)[C@@H](NC(=O)[C@H](CO)NC(=O)[C@H](Cc1ccc(O)cc1)NC(=O)[C@H](CC(=O)O)NC(=O)[C@H](CO)NC(=O)[C@@H](NC(=O)[C@H](Cc1ccccc1)NC(=O)[C@@H](NC(=O)CNC(=O)[C@H](CCC(N)=O)NC(=O)C(C)(C)NC(=O)[C@@H](N)Cc1ccc(O)cc1)[C@@H](C)O)[C@@H](C)O)[C@@H](C)CC)C(=O)N[C@@H](CCC(=O)O)C(=O)N[C@@H](Cc1ccc(O)cc1)C(=O)N[C@@H](CC(C)C)C(=O)N[C@@H](CC(C)C)C(=O)N[C@@H](CCC(=O)O)C(=O)NC(C)(C)C(=O)NCC(=O)N1CCC[C@H]1C(=O)N[C@@H](CO)C(=O)N[C@@H](CO)C(=O)NCC(=O)N[C@@H](C)C(=O)N1CCC[C@H]1C(=O)N1CCC[C@H]1C(=O)N1CCC[C@H]1C(=O)N[C@@H](CO)C(N)=O [Example 13] (H-Y[Aib]QGTFTSDYSI[αMeL]LDKK([AEEA-γGlu-C20 diacid])AQ[Aib]AFIEYLLE[Aib]GPSSGAPPPS-NH2)
AUCINF_D_obs [1]: 205.7 hr*kg*nmol/L/nmol
pKi [2]: 8.72
pEC50 (hGLP-1R): 9.90
pKi [3]: 10.34
pKi (GLP-1 receptor (GLP-1R)): 8.19
CL/F (in vivo): 0.0817 mL/min/kg
Tmax (in vivo): 20 h
half-life (in vivo): 21.7 h
pEC50 (hGIPR): 10.41
pEC50 (hGcgR): 10.09

CC[C@H](C)[C@H](NC(=O)[C@H](Cc1ccccc1)NC(=O)[C@H](C)NC(=O)C(C)(C)NC(=O)[C@H](CCC(N)=O)NC(=O)[C@H](C)NC(=O)[C@H](CCCCNC(=O)COCCOCCNC(=O)CC[C@H](NC(=O)CCCCCCCCCCCCCCCCCCC(=O)O)C(=O)O)NC(=O)[C@H](CCCCN)NC(=O)[C@H](CC(=O)O)NC(=O)[C@H](CC(C)C)NC(=O)[C@H](CC(C)C)NC(=O)[C@@H](NC(=O)[C@H](CO)NC(=O)[C@H](Cc1ccc(O)cc1)NC(=O)[C@H](CC(=O)O)NC(=O)[C@H](CO)NC(=O)[C@@H](NC(=O)[C@H](Cc1ccccc1)NC(=O)[C@@H](NC(=O)CNC(=O)[C@H](CCC(N)=O)NC(=O)C(C)(C)NC(=O)[C@@H](N)Cc1ccc(O)cc1)[C@@H](C)O)[C@@H](C)O)[C@@H](C)CC)C(=O)N[C@@H](CCC(=O)O)C(=O)N[C@@H](Cc1ccc(O)cc1)C(=O)N[C@@H](CC(C)C)C(=O)N[C@@H](CC(C)C)C(=O)N[C@@H](CCC(=O)O)C(=O)NC(C)(C)C(=O)NCC(=O)N1CCC[C@H]1C(=O)N[C@@H](CO)C(=O)N[C@@H](CO)C(=O)NCC(=O)N[C@@H](C)C(=O)N1CCC[C@H]1C(=O)N1CCC[C@H]1C(=O)N1CCC[C@H]1C(=O)N[C@@H](CO)C(N)=O [Example 20] (H-Y[Aib]QGTFTSDYSILLDKK([AEEA-γGlu-C20 diacid])AQ[Aib]AFIEYLLE[Aib]GPSSGAPPPS-NH2; N-terminus assumed)
pKi [2]: 8.42
pEC50 (hGLP-1R): 9.83
pKi [3]: 9.96
pKi (GLP-1 receptor (GLP-1R)): 8.03
pEC50 (hGIPR): 10.24
pEC50 (hGcgR): 10.19
